The values below are quoted from earlier work in US6982284B1, “Compositions and methods for modification of skin lipid content” (Applied Genetics Incorporated Dermatics, priority 1999, dated 2006).

The data set relates to living skin equivalents.

For Vitamin E, the “effect on lipid composition” value is on record as “no effect”.

In the case of `O=C1O[C@H]([C@@H](O)CO)C(O)=C1O` [Vitamin C], for the setting “50 ug/ml”, the “glucosylceramides and ceramides, most notably ceramides 6 and 7” value is on record as “increases”.
